Measured values published in patent US10385038B2, “Pyridine substituted 2-aminopyridine protein kinase inhibitor crystal” (Chia Tai Tianqing Pharmaceutical Group Co., Ltd., priority 2015, dated 2019).
Like-named read-outs stand apart in the source and are kept apart here.

Experiments:
[1] = Hygroscopicity test (Chinese Pharmacopoeia 2005, Appendix XIX J); format: physicochemical
[2] = Stability test (Chinese Pharmacopoeia 2010, Appendix XIX C), total impurities by HPLC; format: physicochemical; details: for Total impurities: citrate salt
Protocol: Stability was examined for 10 days under the conditions of 40° C., 60° C., 75% relative humidity (25° C.), 92.5% relative humidity (25° C.), or light illumination (5000 lx±500 lx), respectively. Samples were taken on day 0 and day 10, and the total impurities thereof were assayed by HPLC.
Column: Waters XBridge C18 (5 μm, 4.6×150 mm)
Mobile phase A: 0.01 M aqueous ammonium formate, to which 0.1% formic acid was added, and triethylamine was also added to adjust the pH to 7.4
Mobile phase B: acetonitrile
Linear gradient elution, with the following procedure: […]
Detection wavelength: diode array detector (280 nm)
Column temperature: 40° C.
Solvent: acetonitrile-water (1:1)
Preparation of the test solution: the solution was taken and accurately weighed, dissolved in a solvent and diluted to a solution at 1 mg per 1 mL, as the test solution.

[3] = Pharmacokinetic test, intragastric administration to Beagle dogs, plasma LC-MS/MS; format: in vivo; details: for bioavailability / Cmax / AUC(0-t) / AUC(0-inf) / Tmax: both sexes, dog, plasma; for bioavailability: beagle, oral, crystal of citrate salt versus compound of Formula I; for Cmax / AUC(0-t) / AUC(0-inf) / Tmax: po; for Cmax / AUC(0-t) / AUC(0-inf) / Tmax / t1/2z: suspension in 0.5% CMC-Na, citrate crystal 5.52 mg/kg, compound of Formula I 4 mg/kg (equimolar as base); for AUC(0-t): 0-36 h, trapezoidal; for AUC(0-inf): extrapolated Ct/λ; for Tmax: mean ± spread
Text: In this study, LC-MS/MS was used to determine the plasma concentrations of drugs after the compound of Formula I and crystals of citrate salt thereof were intragastrically administered to Beagle dogs, and the effects of the crystals of citrate salt of the compound of Forumla I on the absorption behavior were observed.
The instrumentation system included the LC-10ADvp (Shimadzu, Japan) LC system and the TSQ Quantum Access triple quadrupole tandem mass spectrometer equipped with an electrospray ionization (ESI) source and Xcalibur 2.0.7 data processing system (Thermo Scientific, USA); the operating software was DAS2.1.1; other instruments were One hundred thousandth electronic balance (Mettler Toledo); Centrifugal rotary concentrator (LABCONCO, USA); High-speed refrigerated centrifuge (Model 5430-R, Eppendorf); Refrigerator (Model BCD-281E, Electrolux); Low temperature refrigerator (Model FORMA 700 SERIES, Thermo […]), etc.
Column: Thermo C18 LC column (size: 150 L×2.1 mm, 5 μm); column temperature: 40° C.; Mobile phase A: aqueous phase (containing 5 mM ammonium acetate and 0.1% formic acid); mobile phase B: methanol; gradient elution: 0.01 min, 20%; 0.5 min, 20%; 1.5 min, 80%; 4.5 min, 80%, 5 min, 20%, 6 min, stop (phase B). The flow rate was 0.3 mL/min. Benazeprilat was used as the internal standard for measurement.
The measurement was carried out by LC-MS/MS. The ion source was an ESI source and detection was performed in the positive ionization mode; the spray voltage was 3.8 kV; the heated capillary temperature was 350° C.; the pressure of the sheath gas (N2) was 35 Arb; the pressure of the auxiliary gas (N2) was 15 Arb; and voltages for collision induced dissociation (CID) were 25 eV and 25 eV (internal standard), respectively. The scanning mode was selective reaction monitoring (SRM), and the ion reactions for quantitative analysis were m/z 506.3-315.2 (the compound of Formula I) and m/z 397-351 (internal standard), respectively.
Six adult healthy beagle dogs, half male and half female, each weighing 9-11 kg, were randomly divided into two groups, and cross-administrated with the compound of Formula I and a crystal of citrate salt thereof.
After fasted for 12 h, the dogs were intragastrically administered with the crystal of citrate salt of the compound of Formula I and with the compound of Formula I (both were formulated with 0.5% CMC-Na as a suspension) at 5.52 mg/kg and 4 mg/kg (equimolar amounts based on the base form), respectively. A blank blood sample was taken before administration; and venous blood samples, about 1.0 ml each, were taken 0.5, 1, 2, 3, 4, 6, 8, 12, 14, 24, 36 hours after administration, placed in test tubes containing heparin, and centrifuged. The plasma fractions were isolated and stored at −80° C. After the washout period (7 days), the two groups of animals were each cross-administrated with the corresponding second drug, and the concentration of compound of Formula I in plasma samples was measured. The plasma concentration-time data for each test animal were input into a computer and the relevant pharmacokinetic parameters were calculated using the pharmacokinetic professional software DAS2.1.1, wherein Cmax and Tmax were measured values. AUC(0-t) and AUC(0-∞) are the area under the plasma concentration-time curve for the period of measurement and the total area under the plasma concentration-time curve, respectively. The AUC(0-t) was estimated by the trapezoidal method from the measured plasma concentrations, and the AUC(0-∞) was calculated from the AUC(0-t) plus the remaining area in the range t→∞, which can be calculated by the following equation: AUC(t-∞)=Ct/λ
In the above equation, Ct is the last plasma concentration measured, and λ is the elimination rate constant in the terminal portion of the plasma concentration.

[4] = 10 days at 40° C., 60° C., 75% RH, 92.5% RH or light

For `COc1cc(N2CCNC[C@@H]2C)ncc1-c1cnc(N)c(O[C@H](C)c2c(Cl)ccc(F)c2Cl)c1.O=C(O)CC(O)(CC(=O)O)C(=O)O` [Example 8, 5-((R)-1-(2,6-dichloro-3-fluorophenyl)ethoxy)-4′-methoxy-6′-((S)-2-methylpiperazin-1-yl)-3,3′-bipyridin-6-amine citrate salt], the “Hygroscopic weight gain compared to the compound of Formula I and the other salts thereof (in words)” value [1] was “obviously lower”, the Total impurities ([2]; 40° C., 10 days, listed as crystal form B of citrate salt of the compound of Formula I) was 0.96% and the Total impurities ([2]; 60° C., 10 days, listed as crystal form B of citrate salt of the compound of Formula I) was 1.19%. It also gave a Total impurities ([2]; Initial state, 0 day, listed as crystal form B of citrate salt of the compound of Formula I) of 0.89%, a Total impurities ([2]; Light illumination (5000 lx±500 lx), 10 days, listed as crystal form B of citrate salt of the compound of Formula I) of 0.99% and a Total impurities ([2]; Relative humidity 75%, 25° C., 10 days, listed as crystal form B of citrate salt of the compound of Formula I) of 0.94%. The Total impurities ([2]; Relative humidity 92.5%, 25° C., 10 days, listed as crystal form B of citrate salt of the compound of Formula I) was 0.95%.

With `COc1cc(N2CCNC[C@@H]2C)ncc1-c1cnc(N)c(O[C@H](C)c2c(Cl)ccc(F)c2Cl)c1.O=C(O)CC(O)(CC(=O)O)C(=O)O` [Example 12, 5-((R)-1-(2,6-dichloro-3-fluorophenyl)ethoxy)-4′-methoxy-6′-((S)-2-methylpiperazin-1-yl)-3,3′-bipyridin-6-amine citrate salt] the “Hygroscopic weight gain compared to the compound of Formula I and the other salts thereof (in words)” value [1] was “obviously lower”.

For `COc1cc(N2CCNC[C@@H]2C)ncc1-c1cnc(N)c(O[C@H](C)c2c(Cl)ccc(F)c2Cl)c1.O=C(O)CC(O)(CC(=O)O)C(=O)O` [Example 2, 5-((R)-1-(2,6-dichloro-3-fluorophenyl)ethoxy)-4′-methoxy-6′-((S)-2-methylpiperazin-1-yl)-3,3′-bipyridin-6-amine citrate salt], the “Hygroscopic weight gain compared to the compound of Formula I and the other salts thereof (in words)” value [1] was “obviously lower”, the Total impurities ([2]; 40° C., 10 days, listed as crystal form A of citrate salt of the compound of Formula I) was 0.77% and the Total impurities ([2]; 60° C., 10 days, listed as crystal form A of citrate salt of the compound of Formula I) was 0.89%. For the same compound, the “Stability (in words)” value [2, 4] was “good stability”, the “Stability compared between crystal forms (in words)” value [2, 4] was “better than that of crystal form B” and the Total impurities ([2]; Initial state, 0 day, listed as crystal form A of citrate salt of the compound of Formula I) was 0.76%. It also gave a Total impurities ([2]; Light illumination (5000 lx±500 lx), 10 days, listed as crystal form A of citrate salt of the compound of Formula I) of 0.78%, a Total impurities ([2]; Relative humidity 75%, 25° C., 10 days, listed as crystal form A of citrate salt of the compound of Formula I) of 0.79% and a Total impurities ([2]; Relative humidity 92.5%, 25° C., 10 days, listed as crystal form A of citrate salt of the compound of Formula I) of 0.77%. The “Degree and rate of absorption compared to the compound of Formula I (in words)” value [3] was “better degree and rate of absorption”, the bioavailability ([3]; from AUC(0-t), read-out: Relative bioavailability F1) was 114 ± 68.3% and the bioavailability ([3]; from AUC(0-∞), read-out: Relative bioavailability F2) was 113 ± 68.3%. The Cmax [3] was 63 ± 29.2 ng/mL, the AUC(0-t) [3] was 570 ± 343 ng·h/mL and the AUC(0-inf) [3] was 586 ± 353 ng·h/mL. It also gave a Tmax [3] of 2.33 ± 1.03 h and a t1/2z [3] of 5.94 ± 1.59 h.

Compound `COc1cc(N2CCNC[C@@H]2C)ncc1-c1cnc(N)c(O[C@H](C)c2c(Cl)ccc(F)c2Cl)c1` [Example 1, 5-((R)-1-(2,6-dichloro-3-fluorophenyl)ethoxy)-4′-methoxy-6′-((S)-2-methylpiperazin-1-yl)-3,3′-bipyridin-6-amine] has a Cmax [3] of 50 ± 20.8 ng/mL, an AUC(0-t) [3] of 502 ± 176 ng·h/mL and an AUC(0-inf) [3] of 517 ± 181 ng·h/mL. For the same compound, the Tmax [3] was 3.17 ± 1.6 h and the t1/2z [3] was 6.71 ± 2.55 h.
